Where “and” joins values, the source holds several entries; their conditions need not be identical. Equal entries are not always repeated.
Experiments:
Format in all cases: in vivo, Sprague-Dawley rats
[1] = Urinary excretion after i.v. infusion; settings: rat, urine, iv, read-out: Proportion of administered dose appearing in urine
Description: (§1) Adult male Sprague-Dawley rats (body weight 200-230 g) were anesthetized by an intraperitoneal injection of pentobarbital (Nembutal, 7.5 mg/100 g body weight), and maintained under sedation by additional doses. The right jugular vein and the common bile duct were cannulated using PE-50 polyethylene tubing (Clay-Adams, Parsippany, N.J.). Body temperature was maintained throughout the experiment at 37° C. using a rectal probe and a thermostatically controlled heating pad (Harvard Apparatus Co., Inc., Millis, Mass.). Saline was infused at a rate of 1.0 ml/h using a Harvard pump (Harvard Apparatus Co., Inc.) into the jugular vein for a control period of 2h. After collecting two 10 minute bile samples for base-line analysis, the bile acids were individually infused intravenously (i.v.) for 30 minutes in stepwise increasing doses (0.5, 1.0, and 2.0 μmol/min/100 g body weight). Bile acid solutions were prepared in 3% human albumin in 0.45% saline. Six animals were used for each experiment and bile was collected every 10 minutes into preweighed tubes. At the end of the experiment, blood was obtained by cardiac puncture, and urine was obtained by aspiration of the bladder. All biological specimens were stored at -20° C. This animal study protocol (#1 B 10044) was approved by the Bioethics committee of the Children's Hospital Medical Center (Cincinnati, Ohio).
Negative ion fast atom bombardment-mass spectrometry (FAB-MS) spectra of bile samples, urine and synthetic compounds were obtained after placing the equivalent of approximately 1 μl of the original bile extract, 10 μl-50 μl of the urine extract and jig quantities of synthetic bile acids dissolved in methanol onto a small drop of a glycerol matrix spotted on a copper target of the FAB probe. This probe was introduced directly into the ion source of the mass spectrometer and a beam of fast atoms of either xenon generated with a saddle field atom gun (ion Tech, Teddington, Middlesex, UK) operated at 8 kV and 20 μA, or cesium generated from cesium iodine (35 kV), was fired at the target containing the sample. Negative ion spectra were obtained over the mass range of 50-1000 Da/e.
Urine collections from the six animals were pooled and the bile acids were extracted by liquid-solid extraction using a Bond Elut-C18 cartridge and bile acids were analyzed by GC-MS after solvolysis, hydrolysis and derivatization.

bile-flow = experiment: Bile-flow and bile acid secretion during i.v. infusion; settings: for Bile flow, maximum / Bile salt output (biliary bile acid secretion rate), maximum: i.v. infusion 0.5, 1.0, 2.0 μmol/min/100 g, mean ± SEM, six animals; for Apparent choleretic activity (slope of regression line): bile acid secretion rate vs bile-flow
Description: as §1
(§2) Bile volume was determined gravimetrically assuming a density of 1 g/ml. Total 3α-hydroxy bile acid concentration in the bile was measured enzymatically before solvolysis (nonsulfated bile acids) and after solvolysis (total bile acids) (Mashige, F., et al., Direct spectrometry of total bile acids in serum. Clin. Chem. 27: 1352-1356 (1981)). The bile acid output was calculated by multiplying the rate of bile-flow by the bile acid concentration. Biliary phospholipids were determined by an enzymatic procedure based on the choline oxidase method (Nippon Shoji Kaisha, Ltd., Osaka, Japan) (Grantz, D., et al., Enzymatic measurement of choline-containing phospholipids in bile. J. Lipid Res. 22: 273-276 (1981)). Cholesterol was also measured enzymatically (Boehringer Mannehim, Indianapolis, Ind.) (Fromm, H., et al., Use of a simple enzymatic assay for cholesterol analysis in human bile. J. Lipid Res. 21: 259-261 (1980)).
(§3) Results were expressed as mean±standard error of mean (SEM). Bile-flow and biliary lipid output were expressed as μl /min/g liver and nmol/min/g liver, respectively. Statistical analysis was made using INSTAT program (Graphpad Software Inc., San Diego, Calif.). Parametric data among groups were analyzed using Student's t-test. The statistical comparisons between the different groups were made by one-way analysis of variance (ANOVA). […] Linear regression analysis was performed. The choleretic activity of each bile acid was determined from the slope of regression line of the correlation between the bile acid secretion rate and bile-flow and was expressed as […]. Comparisons between slopes were made by one-way ANOVA.

biliary lipid secretion = experiment: Biliary lipid (cholesterol, phospholipid) secretion during i.v. infusion; settings: for Cholesterol output, maximal change / Phospholipid output, maximal change: mean ± SEM, six animals
Description: as §1, §2, §3

| Compound | dose excreted [1] [%] | Choleretic effect / order of maximum bile-flow (in words) (bile-flow; i.v. infusion) | Bile flow, maximum (bile-flow) [μl/min/g liver] | Bile salt output (biliary bile acid secretion rate), maximum (bile-flow) | Apparent choleretic activity (slope of regression line) (bile-flow; i.v. infusion) [µL/µmol] | Biliary cholesterol secretion (in words) (biliary lipid secretion) | Biliary phospholipid secretion (in words) (biliary lipid secretion) | Cholesterol output, maximal change (biliary lipid secretion) | Phospholipid output, maximal change (biliary lipid secretion) [nmol/min/g liver] |
| --- | --- | --- | --- | --- | --- | --- | --- | --- | --- |
| C[C@H](CCC(=O)O)[C@H]1CC[C@H]2[C@@H]3[C@@H](O)C[C@@H]4C[C@H](OS(=O)(=O)O)CC[C@]4(C)[C@H]3CC[C@]12C [UDCA-3S, ursodeoxycholic acid 3-sulfate] | 2.8 | less effective in stimulating bile-flow than unconjugated UDCA | 3.34 ± 0.13 | 138.90 ± 11.80 nmol/min/g liver and 138.9±11.8 nmol/min/g liver | 13 ± 1 | significantly reduced the biliary cholesterol output | significant reduction in biliary phospholipids | 0.40 ± 0.02 nmol/min/g liver and 0.40±0.05 nmol/min/g liver | 4.00 ± 0.50 |
| C[C@H](CCC(=O)O)[C@H]1CC[C@H]2[C@@H]3[C@@H](OS(=O)(=O)O)C[C@@H]4C[C@H](OS(=O)(=O)O)CC[C@]4(C)[C@H]3CC[C@]12C [UDCA-DS, ursodeoxycholic acid 3,7-disulfate] | 2.2 | – | 5.92 ± 0.21 | 222.40 ± 24.30 nmol/min/g liver and 222.4±24.3 nmol/min/g liver | 16 ± 1 | significantly reduced the biliary cholesterol output | significant reduction in biliary phospholipids | 0.37 ± 0.07 nmol/min/g liver and 0.37±0.12 nmol/min/g liver | 2.50 ± 0.30 |
| C[C@H](CCC(=O)O)[C@H]1CC[C@H]2[C@@H]3[C@@H](OS(=O)(=O)O)C[C@@H]4C[C@H](O)CC[C@]4(C)[C@H]3CC[C@]12C [UDCA-7S, ursodeoxycholic acid 7-sulfate] | 0.9 | – | 5.83 ± 0.31 | 255.40 ± 18.20 nmol/min/g liver and 255.4±18.2 nmol/min/g liver | 15 ± 1 | cholesterol secretion was maintained | increased significantly | 1.76 ± 0.23 nmol/min/g liver and 1.76±0.21 nmol/min/g liver | 15.00 ± 1.70 |
| C[C@H](CCC(=O)O)[C@H]1CC[C@H]2[C@@H]3[C@@H](O)C[C@@H]4C[C@H](O)CC[C@]4(C)[C@H]3CC[C@]12C [UDCA, 3 alpha, 7 beta-dihydroxy-5 beta-cholan-24oic acid, reference compound] | 0.01 | – | 4.88 ± 0.16 | 145.10 ± 17.30 nmol/min/g liver and 145.1±17.3 nmol/min/g liver | 16 ± 2 | significant decline | increased significantly | 1.88 ± 0.19 nmol/min/g liver | 17.20 ± 1.90 |
